Data on one molecule can be found in patent US20260102407A1, “TREATMENT METHODS” (priority 2020, published 2026).

The structures appear in SMILES notation.

For one data set, the system named is AP-1 response element. Put plainly: AP-1 response element Firefly luciferase high-throughput screen in 293/AP-1-luc cells. The data set is classed as cell-based, human. The conditions noted are these: 11-point titration curves; TPA-induced 293/AP-1-luc cells. The text has this:
High-throughput screen of compound library. Hits were selected from the ˜100,000 compound Lead Discovery Library at the HTS Facility at Walter & Eliza Hall Institute of Medical Research (WEHI, Bundoora, Vic) with a commercially-available human embryonic kidney (HEK)-293 cell-based assay in 384-well microtitre plates in which Firefly luciferase was driven by multiple copies of the AP-1 response element (293/AP-1-luc cells, Panomics, Fremont, CA). Briefly, the cell-based assay involved plating 5×10^3 cells into 384-well plates in DMEM, pH 7.4 containing 10% FBS. After ˜18 h, the cells were induced with 10 ng/ml […] (TPA) (Sigma, St Louis, MO) in the absence or presence of test compound, then after ˜18 h, luciferase activity was measured using a luminometer. The hit rate of the primary screen was 2.4%. […] A substructure filter was then applied to remove pan-assay interference compounds (Baell, J. B., et al., J Med Chem 53, 2719-2740 (2010)) and using the most stringent filtering criteria 256 hits were selected for further study. After dose response testing, 24 compounds with molecular weight <400 Da were reordered from suppliers and tested in secondary assays.

The subject of another data set is ERK phosphorylation. Put plainly: Western blot, IL-1β-inducible ERK phosphorylation in HMEC-1. The class given is cell-based, human. The protocol: Western blot analysis with extracts of cells treated with […]. HMEC-1 (80-90% confluency) were arrested in serum-free MCDB131 medium (Invitrogen, MD) without any growth factor for 48 h. Cells were treated with 30 μM compound in serum-free medium for 4 h, and incubated with 20 ng/ml IL-1β (Sigma, cat. SRE3083) in serum-free medium with the same concentration of compound for up to 4 h, unless otherwise indicated. Total protein was harvested as previously described using RIPA buffer with protease inhibitors. Proteins were resolved on 4-20% (w/v) SDS-polyacrylamide gradient gels and transferred to Immobilon-P PVDF membranes. Membranes were blocked with 5% skim milk and incubated with rabbit monoclonal FosB (cat. 2251S, 1:1000, Cell Signaling, USA), rabbit monoclonal VCAM-1 (cat. 13662S, 1:1000, Cell Signaling, USA), rabbit monoclonal p44/42 MAPK (cat. 4695S, 1:1000, Cell Signaling, USA), rabbit polyclonal p38 MAPK (cat. 9212S, 1:1000, Cell Signaling, USA), rabbit polyclonal SAPK/JNK (cat. 9252S, 1:1000, Cell Signaling, USA), rabbit monoclonal phospho-SAPK/JNK (cat. 4671S, 1:1000, Cell Signaling, USA), rabbit monoclonal phospho-p38 MAPK (cat. 4511S, 1:1000, Cell Signaling, USA), or, mouse monoclonal phospho-p44/42 MAPK antibodies (cat. 9106S, 1:2000, Cell Signaling, USA) at 4° C. overnight or mouse monoclonal β-actin antibodies (cat. A5316, 1:10000, Sigma-Aldrich) antibodies at 22° C. for 1 h. Membranes were then incubated with horseradish peroxidase conjugated secondary goat anti-rabbit (cat. P0448, 1:1000, DAKO Cytomation, Denmark) or goat anti-mouse (cat. P0447, 1:1000, DAKO Cytomation, Denmark) antibodies for 1 h. Chemiluminescence was detected using the Western Lightning Chemiluminescence system and ImageQuant™ LAS 4000 biomolecular imager. Band intensity in images generated with the LAS 4000 using the same settings were quantified by NIH ImageJ.
In general terms: A western blot detects proteins with antibodies after separation by electrophoresis.

In another data set the test system is FosB/ΔFosB. Put plainly: Western blot, IL-1β-inducible FosB/ΔFosB expression in HMEC-1. The class given is cell-based, human. The conditions noted are these: 30 μM, 20 ng/ml IL-1β up to 4 h. How it is done:
Western blot analysis with extracts of cells treated with IL-13. HMEC-1 (80-90% confluency) were arrested in serum-free MCDB131 medium (Invitrogen, MD) without any growth factor for 48 h. Cells were treated with 30 μM compound in serum-free medium for 4 h, and incubated with 20 ng/ml IL-1β (Sigma, cat. SRE3083) in serum-free medium with the same concentration of compound for up to 4 h, unless otherwise indicated. Total protein was harvested as previously described using RIPA buffer with protease inhibitors. Proteins were resolved on 4-20% (w/v) SDS-polyacrylamide gradient gels and transferred to Immobilon-P PVDF membranes. […] Chemiluminescence was detected using the Western Lightning Chemiluminescence system and ImageQuant™ LAS 4000 biomolecular imager. Band intensity in images generated with the LAS 4000 using the same settings were quantified by NIH ImageJ.

In the next data set the test system is genes induced by IL-1β. Put plainly: RNA-seq of IL-1β-treated HMEC-1. The class given is cell-based, human. The conditions noted are these: 30 μM, 20 ng/ml IL-1β 4 h. How it is done:
RNA-seq. HMEC-1 were seeded into nine 100 mm petri dishes with complete MCDB131 medium containing 10% FBS. At 70-80% confluency, cells were growth-arrested with serum-free MCDB131 medium with no hydrocortisone or EGF for 44 h. Cells were pre-treated with 30 μM BT2 in the same medium for 4 h then stimulated with 20 ng/mL IL-1β for a further 4 h. Total RNA was extracted using RNeasy Mini Kit (Qiagen, Amtsgericht Dusseldorf) with modification. Briefly, cells were washed twice with pre-cooled 1×PBS and TRIzol (Thermo Fisher Sci, Waltham, MA) was added to lyze the cells. Chloroform was added to the mixture prior to centrifugation at 13000 rpm for 15 min at 4° C. Upper aqueous layer containing total RNA was transferred to fresh microtubes and isopropanol was added and loaded into RNeasy column. Columns were washed with Buffers RW1 and RPE. Total RNA was eluted from the column using RNAse-free water. Samples were submitted to The Ramaciotti Centre for Genomics (UNSW, Australia) for TruSeq Stranded mRNA-seq preparation and sequencing by One NextSeq 500 1×75 bp High Output flowcell with data output up to 400M reads. Quality control of samples was set at >80% higher than Q30 at 1×75 bp.
RNA-seq reads were first assessed for quality using the tool FastQC (v0.11.8) (On the World-Wide-Web at: bioinformatics.babraham.ac.uk/projects/fastqc/). The tool Salmon was used for quantifying transcript abundance from RNA-seq reads (Patro, R., et al., Nat Methods 14, 417-419 (2017)). The R package DESeq2 (Love, M. I., et al., Genome Biol 15, 550 (2014)) that incorporates a method for differential analysis of count data was then used to identify differentially expressed genes across specific comparisons. The heatmap.2 function from the R package gplots v3.0.1.1 was used to generate heatmaps using counts per million (cpm) values for sets of genes of interest. The database for annotation, visualization and integrated discovery (DAVID) (Jiao, X., et al., Bioinformatics 28, 1805-1806 (2012)), a web-based online bioinformatics resource was used to identify the gene ontologies such as biological processes (BP) found to be enriched for lists of differentially expressed genes for specific comparisons.

A short description of the next data set: Solubility in water. The data set is classed as physicochemical.

Turning to `CCOC(=O)Nc1ccc2c(c1)C(=O)N(CC)c1ccccc1O2` [BT2, (10-ethyl-11-oxo-10,11-dihydro-dibenzo[b,f][1,4]oxazepin-2-yl)-carbamic acid ethyl ester], the “IC50, AP-1 luciferase screen” value in the data set on AP-1 response element is listed as “micromolar or submicromolar range”. Also, the “IL-1β-inducible ERK phosphorylation (Western blot)” value in the data set on ERK phosphorylation (30 μM, 20 ng/ml IL-1β up to 4 h) was “inhibited”. Besides, the “inhibition of IL-1β-inducible ERK phosphorylation, potency relative to PD98059” value in the data set on ERK phosphorylation (dose escalation 1-30 μM) was “more potently than PD98059”. Also, the “IL-1β-inducible FosB/ΔFosB expression (Western blot)” value in the data set on FosB/ΔFosB is on record as “inhibited”. In the data set with genes induced by IL-1β, the “IL-1β-inducible FosB and VCAM-1 expression (RNA-seq)” value was “suppress IL-1β-inducible FosB and VCAM-1 expression”; the “expression of other regulatory genes including ICAM-1, CXCL2, KLF5, Egr-1 and Fos (RNA-seq)” value was “inhibited a range of other regulatory genes”; the “number of the 325 IL-1β-induced genes (log FC≥2) inhibited (log FC≥2)” value stood at 89; the “proportion of the 325 IL-1β-induced genes inhibited” value is listed as 27.5%. Besides, in the data set “Solubility in water”, the solubility in water entry is on record as “poorly soluble in water”.
